The subject of one data set is Neisseria gonorrhoeae. More on the design: method as in PMID 33765392, PMID 34894972. To be noted: treatment with CA inhibitor; no apparent development of resistance; ref [35],[36]; cited from earlier work.
The next data set deals with psCA1. Particulars: read-out: KI psCA1; 20 °C, 10 mM Tris buffer, 20 mM NaClO4 pH 8.3; ref [52]; cited from earlier work.
Data set [1] has as its target PaCAγ1 (Pseudomonas aeruginosa, UniProt Q9HT34). Kind of data set: biochemical. To be noted: Stopped-Flow assay, mean from 3 different assays.
The next data set deals with hCA I (Homo sapiens, UniProt P00915). The data set is described as follows: Stopped-flow CO2 hydration inhibition assay, hCA I. In kind it is biochemical.
Chain of hCA I (P00915 whole entry): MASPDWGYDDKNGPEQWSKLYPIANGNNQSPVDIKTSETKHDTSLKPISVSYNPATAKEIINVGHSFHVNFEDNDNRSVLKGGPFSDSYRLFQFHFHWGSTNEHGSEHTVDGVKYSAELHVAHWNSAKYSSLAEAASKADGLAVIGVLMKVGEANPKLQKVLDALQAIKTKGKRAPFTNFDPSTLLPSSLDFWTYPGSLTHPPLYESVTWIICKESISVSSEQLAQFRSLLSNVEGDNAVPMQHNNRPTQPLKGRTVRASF
The target in another data set is hCA II (Homo sapiens, UniProt P00918). The data set is described as follows: Stopped-flow CO2 hydration inhibition assay, hCA II. In kind it is biochemical. Particulars: mean from 3 different assays, errors ±5–10 %.
Data set [2] relates to PaCAγ1. The data set is described as follows: biochemical. To be noted: Selectivity Index, ratio of KI.
The next data set has as its system Helicobacter pylori. To be noted: without triggering resistance; ref [37]; cited from earlier work.
Data set [3] concerns the molecule itself. The data set is described as follows: SEC-MALS; SEC-MALS-QELS; 700 μg of purified protein loaded on the SEC s75 column, 20 mM TRIS, 150 mM NaCl, pH 8.5, flow rate 0.5 mL/min. For orientation: Size exclusion chromatography separates by hydrodynamic size, large species first.
The mark [4] stands for this setting: Stopped-Flow assay, mean from 3 different assays, errors ±5–10 %, read-out: KI hCA I.

Read-outs that look alike come from different tables or passages of the source.

As usually defined, the Ki is a measure of affinity in units of concentration, obtained from inhibition or displacement. The term stoichiometry N denotes the number of molecules, sites or subunits per partner or assembly.

In the case of `CC(=O)Nc1nnc(S(N)(=O)=O)s1` [AAZ, acetazolamide], the “effect on N. gonorrhoeae” value with Neisseria gonorrhoeae was “long-lasting bacteriostatic effects”.

For the molecule `Nc1cccc(S(N)(=O)=O)c1` [ABS, 3-amino-benzene suldonamide], at psCA1, the Ki was 19 nM.

In the case of `CCN[C@H]1CN(CCCOC)S(=O)(=O)c2sc(S(N)(=O)=O)cc21` [BRZ], at PaCAγ1 [1], the Ki was determined as 307 ± 13.1 nM.

Molecule `NS(=O)(=O)c1nnc(NS(=O)(=O)c2ccccc2)s1` [BZA] had a Ki at PaCAγ1 [1] of 290 ± 14.4 nM.

For the molecule `Nc1cccc(S(N)(=O)=O)c1` [Compound 1], the Ki at PaCAγ1 [1] came out at 189 ± 7.11 nM.

`Nc1ccc(S(N)(=O)=O)cc1` [Compound 2] registered a Ki on PaCAγ1 [1] of 155 ± 5.23 nM.

For `NCc1ccc(S(N)(=O)=O)cc1` [Compound 3], on PaCAγ1 [1], the affinity, expressed as Ki, was 132 ± 8.86 nM.

As to `NS(=O)(=O)c1cccc(S(N)(=O)=O)c1` [Compound 5], the Ki came out at 25000 nM at hCA I (setting [4]) and 561 ± 32.4 nM at PaCAγ1 [1].

Take `Cc1ccc(S(N)(=O)=O)cc1` [Compound 6]: the Ki was 21000 nM at hCA I and 266 ± 14.2 nM at PaCAγ1 [1].

For the molecule `Nc1ccc(S(N)(=O)=O)cc1F` [Compound 7], affinity on PaCAγ1 [1] was put at a Ki of 325 ± 13.8 nM.

With `Nc1ccc(S(N)(=O)=O)cc1Cl` [Compound 8], the Ki on PaCAγ1 [1] is 697 ± 44.7 nM.

`Nc1ccc(S(N)(=O)=O)cc1Br` [Compound 9]: the Ki at PaCAγ1 [1] worked out at 3490 nM.

Regarding `NS(=O)(=O)c1cc(Cl)cc(Cl)c1O` [Compound 10], on PaCAγ1 [1], the Ki was 9670 nM.

The molecule `Nc1cc(C(F)(F)F)c(S(N)(=O)=O)cc1S(N)(=O)=O` [Compound 11] came in with a Ki on PaCAγ1 [1] of 3670 nM.

As to `Nc1cc(Cl)c(S(N)(=O)=O)cc1S(N)(=O)=O` [Compound 12], the Ki on PaCAγ1 [1] came out at 6090 nM.

Regarding `Nc1nnc(S(N)(=O)=O)s1` [Compound 13], the Ki at PaCAγ1 [1] came to 72.6 ± 3.43 nM.

`Cn1nc(S(N)(=O)=O)sc1=N` [Compound 14] returned a Ki at PaCAγ1 [1] of 97.1 ± 5.32 nM.

At PaCAγ1 [1], `NS(=O)(=O)c1ccc(O)cc1` [Compound 15] gave a Ki of 209 ± 9.19 nM.

At PaCAγ1 [1], `NS(=O)(=O)c1ccc(CO)cc1` [Compound 16] yielded a Ki of 533 ± 25.8 nM.

At PaCAγ1 [1], `NS(=O)(=O)c1ccc(CCO)cc1` [Compound 17] had a Ki of 419 ± 17.7 nM.

`NS(=O)(=O)c1ccc(C(=O)O)cc1` [Compound 18]: affinity at PaCAγ1 [1] was put at a Ki of 793 ± 46.2 nM.

Take `Nc1nccc(Nc2ccc(S(N)(=O)=O)cc2)n1` [Compound 19]: on PaCAγ1 [1], the Ki amounted to 1320 nM.

On PaCAγ1 [1], `Nc1ccc(S(=O)(=O)Nc2nnc(S(N)(=O)=O)s2)cc1` [Compound 20] came in with a Ki of 244 ± 16.2 nM.

As to `NS(=O)(=O)c1ccc(CCNS(=O)(=O)c2ccc([N+](=O)[O-])cc2CO)cc1` [Compound 21], on PaCAγ1 [1], the Ki is 564 ± 32.9 nM.

Turning to `Nc1ccc(S(=O)(=O)Nc2ccc(S(N)(=O)=O)cc2)cc1` [Compound 22], the Ki at PaCAγ1 [1] was 386 ± 19.3 nM.

With `Nc1ccc(S(=O)(=O)NCc2ccc(S(N)(=O)=O)cc2)cc1` [Compound 23], the Ki at PaCAγ1 [1] came to 828 ± 51.7 nM.

`Nc1ccc(S(=O)(=O)NCCc2ccc(S(N)(=O)=O)cc2)cc1` [Compound 24] returned a Ki at PaCAγ1 [1] of 584 ± 22.2 nM.

`NS(=O)(=O)c1cc(Cl)c(Cl)c(S(N)(=O)=O)c1` [DCP] registered a Ki at PaCAγ1 [1] of 5680 nM.

Take `NS(=O)(=O)NCCNc1nonc1/C(=N\c1ccc(F)c(Br)c1)NO` [EPC]: the Ki at hCA II was found to be 917 nM; at hCA I (setting [4]) it was 8260 nM; at PaCAγ1 [1], 5320 nM. Further, the “SI hCA I/PaCAγ1” value with PaCAγ1 [2] is 1.6. In addition, in the data set on PaCAγ1 [2], the “SI hCA II/PaCAγ1” value was 0.2.

`CCOc1ccc2nc(S(N)(=O)=O)sc2c1` [EZA, ethoxzolamide]: in the data set on Helicobacter pylori, the “effect on H. pylori growth” value is listed as “inhibited bacterial growth”. Further, the “effect on N. gonorrhoeae” value in the data set with Neisseria gonorrhoeae is listed as “long-lasting bacteriostatic effects”.

As for `NC(N)=Nc1nc(CSCC/C(N)=N/S(N)(=O)=O)cs1` [FAM], the Ki is 58 nM on hCA II, 922 nM on hCA I (setting [4]) and 2690 nM at PaCAγ1 [1]. The “SI hCA I/PaCAγ1” value in the data set with PaCAγ1 [2] turned out to be 0.3. The “SI hCA II/PaCAγ1” value in the data set on PaCAγ1 [2] is 0.02.

For `NS(=O)(=O)c1cc2c(cc1Cl)NCNS2(=O)=O` [HTC], in the data set on PaCAγ1 [2], the “SI hCA I/PaCAγ1” value was found to be 0.05 and the “SI hCA II/PaCAγ1” value turned out to be 0.04. At PaCAγ1 [1], this molecule gave a Ki of 6600 nM.

`NS(=O)(=O)c1ccc(S(=O)(=O)Nc2cccc3c(Cl)c[nH]c23)cc1` [IND] came in with an inhibitory constant (Ki) at PaCAγ1 [1] of 453 ± 20.1 nM.

Regarding `CC(=O)/N=c1/sc(S(N)(=O)=O)nn1C` [MZA], the Ki at PaCAγ1 [1] was 68.4 ± 2.93 nM.

Molecule `O=C1NS(=O)(=O)c2ccccc21` [SAC] had a Ki at PaCAγ1 [1] of 13800 nM.

`NS(=O)(=O)c1ccc(N2CCCCS2(=O)=O)cc1` [SLT] displayed a Ki at PaCAγ1 [1] of 356 ± 23.8 nM.

`CC1(C)O[C@@H]2[C@@H](CO[C@@]3(COS(N)(=O)=O)OC(C)(C)O[C@@H]23)O1` [TPM]: the Ki at PaCAγ1 [1] is more than 100000 nM.

Molecule `Cc1onc(-c2ccccc2)c1-c1ccc(S(N)(=O)=O)cc1` [VLX] showed a Ki on PaCAγ1 [1] of more than 100000 nM.

On PaCAγ1 [1], `NS(=O)(=O)Cc1noc2ccccc12` [ZNS] displayed a Ki of 4170 nM.

B1: PaCAγ1, γ-class carbonic anhydrase from Pseudomonas aeruginosa PAO1 (PA5540) (enzyme, UniProt Q9HT34 1-186, looked up)
chain: MIRKNPSGDLPVIDESAYVDKTAIICGKVIIQANVFVGPYAVIRADEVDADGGMQPIVIGANSNIQDGVVIHSKSGAAVTIGEHSSIAHRSIVHGPCEVGDRVFIGFNSVLFNCRVGDGCVVRHNAVVDGCDLPAGFYVPSTERIGPRTDLASMPRVSVSASEFSEDVARTNVDLVRGYKSLQNEF
notes: PaCAγ1, γ-class carbonic anhydrase encoded by PA5540 of P. aeruginosa PAO1; synthetic gene in pET21d; The initiator methionine is absent in the purified protein by LC-MS; source: E. coli BL21 (DE3), purified (His Trap HP, SEC Superdex 75); not shown: His6, C-terminal, kept
B1: in data set [3], the “stoichiometry N” value was 3.

Values taken from publication PMC13261364 (International journal of biological macromolecules, 2025).
